Literature values as cited in article PMC4366302 (Organic & biomolecular chemistry, 2015).

Settings: known inherent solubilities

Structure (SMILES)	S0 (inherent solubility of drug) [µM]
O=C(NC1=CC(=O)[C@H]2O[C@H]2[C@H]1O)c1cc2ccccc2[nH]c1=O [PBS-1086]	4.5 ± 0.90
O=C1Cc2cc(CCN3CCN(c4nsc5ccccc45)CC3)c(Cl)cc2N1 [Ziprasidone, ziprasidone]	63 ± 3.5
